# From article PMC8151276, “An Integrated Approach toward NanoBRET Tracers for Analysis of GPCR Ligand Engagement” (Molecules, 2021)
# Key:
# Assay type in all cases: binding
# [1] = molecular target: T1, C5AR2 (Homo sapiens, UniProt Q9P296); test: NanoBRET screen HiBiT-C5AR2 in HEK293
# T1 construct: purchased Promega (in-house HiBiT-GPCR construct library, NanoBRET)
# Description: (§1) Each tracer candidate was screened across the entire library of HiBiT-GPCR constructs using NanoBRET as the detection modality. As depicted in Figure 4A, the specificity of interactions was evaluated through decrease in BRET due to competitive displacement of a bound tracer by excess parental compound. Each tracer was analyzed for binding to each HiBiT-GPCR fusion in the absence and in the presence of competing parental compound. Briefly, HEK293 cells were transfected with HiBiT-GPCR constructs diluted into promoterless DNA to reduce expression and maximize translocation to the cell surface. Each tracer candidate was then screened at concentrations of 1 μM and 0.1 μM across cells expressing these fusions. Cells were treated for 1.5 h with tracer either alone or in the presence of 20 μM competing parental compound (i.e., control). BRET was measured upon addition of purified LgBiT and subsequent complementation with HiBiT genetically fused to a GPCR. The specificity of interactions was assessed through a decrease in BRET signal due to competitive displacement of the bound tracer. To further gauge the robustness of these interactions, the fold response over the control (i.e., BRETtracer/BRETcontrol) was calculated. We chose a 1.5-fold response, which translates to ≥7-fold signal over noise as the minimal threshold required to score an interaction as positive. […]. Below we highlight the screening results obtained for our exemplary fluorescent tracers based on Clozapine, Amitriptyline and AZD1283.
# (§2) HiBiT-GPCR DNA constructs were diluted in 10 mM Tris pH 8 to a final concentration of 0.01 μg/μL, arrayed in 96-well plates and stored at −20 °C. For transfection, HEK293 cells were suspended in Opti-MEM (without phenol red) supplemented with 2% fetal bovine serum (Seradigm) and 100 units/mL penicillin–streptomycin (Gibco) at a final concentration of 220,000 cells/mL and dispensed into white 96-well plates at 90 μL/well. Subsequent transfections and screens were carried using an Agilent Bravo Automated Liquid Handling Platform. First, the 96-well HiBiT DNA arrays were diluted 25-fold in Opti-MEM (without serum or phenol red) to a final concentration of 0.0004 μg/μL and 20 μL of the diluted DNAs were transferred into new 96-well plates. Next, promoterless carrier DNA (1 μg/μL) was diluted 25-fold (0.04 μg/μL) and then dispensed into the diluted arrays at 20 μL/well. Following brief mixing, Viafect transfection reagent (Promega) diluted 16-fold into Opti-MEM was dispensed into the plates at 40 μL/well. After mixing by pipetting, plates were incubated for 10 min on the pipetting station deck. The DNA-transfection reagent complexes were then added to plates containing cells. To facilitate the screen, 10 μL of DNA-transfection reagent complexes were added in duplicates to the top 4 and bottom 4 rows, resulting in two identical 48-well arrays per plate. Plates with transfected cells were incubated for 18–20 h at 37 °C/5% CO2. A screen of each tracer across the entire library using two different concentrations requires duplicate plates of transfected cells. Depending on the number of tracers being screened, transfections can be scaled up using the same ratios. The next day, for each tracer, four 20× screening solutions in tracer dilution buffer (Promega) were prepared: two duplicates at final concentration of 20 μM and two duplicates at a final concentration of 2 μM. A competing unmodified compound was added to one of each duplicate at a final concentration of 400 μM. The four resulting solutions were diluted 4-fold in Opti-MEM without serum or phenol red to generate 5× solutions (5 µM and 0.5 µM tracer +/− 100 μM competing compound). To screen the library, a BioTek MultiFlo FX liquid dispenser was used to dispense 22.5 µL of tracer solution to the top 4 rows and 22.5 µL tracer + competing compound solution to the 4 bottom rows. Plates were briefly mixed on an orbital shaker and incubated for 1.5 h at room temperature. […]
# [2] = molecular target: T2, HRH3 (Homo sapiens, UniProt Q9Y5N1); test: NanoBRET screen HiBiT-HRH3 in HEK293
# T2 construct: purchased Promega (in-house HiBiT-GPCR construct library, NanoBRET)
# T2 sequence (Q9Y5N1 whole entry): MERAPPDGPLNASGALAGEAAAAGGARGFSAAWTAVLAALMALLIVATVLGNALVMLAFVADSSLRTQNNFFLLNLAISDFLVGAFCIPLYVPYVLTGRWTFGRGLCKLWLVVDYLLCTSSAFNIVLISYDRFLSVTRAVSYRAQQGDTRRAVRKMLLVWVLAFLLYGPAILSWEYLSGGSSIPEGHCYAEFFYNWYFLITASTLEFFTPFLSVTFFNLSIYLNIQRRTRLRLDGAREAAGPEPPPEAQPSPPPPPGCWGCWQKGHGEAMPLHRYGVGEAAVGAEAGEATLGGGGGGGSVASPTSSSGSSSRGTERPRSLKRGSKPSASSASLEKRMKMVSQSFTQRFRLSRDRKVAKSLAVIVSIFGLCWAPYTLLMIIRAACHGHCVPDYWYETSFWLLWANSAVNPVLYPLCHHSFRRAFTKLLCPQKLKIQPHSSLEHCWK
# Description: as §1, §2
# [3] = molecular target: T3, GRM2 (Homo sapiens, UniProt Q14416); test: NanoBRET screen HiBiT-GRM2 in HEK293; settings: GRM2
# T3 construct: purchased Promega (in-house HiBiT-GPCR construct library, NanoBRET)
# T3 sequence (Q14416 19-872): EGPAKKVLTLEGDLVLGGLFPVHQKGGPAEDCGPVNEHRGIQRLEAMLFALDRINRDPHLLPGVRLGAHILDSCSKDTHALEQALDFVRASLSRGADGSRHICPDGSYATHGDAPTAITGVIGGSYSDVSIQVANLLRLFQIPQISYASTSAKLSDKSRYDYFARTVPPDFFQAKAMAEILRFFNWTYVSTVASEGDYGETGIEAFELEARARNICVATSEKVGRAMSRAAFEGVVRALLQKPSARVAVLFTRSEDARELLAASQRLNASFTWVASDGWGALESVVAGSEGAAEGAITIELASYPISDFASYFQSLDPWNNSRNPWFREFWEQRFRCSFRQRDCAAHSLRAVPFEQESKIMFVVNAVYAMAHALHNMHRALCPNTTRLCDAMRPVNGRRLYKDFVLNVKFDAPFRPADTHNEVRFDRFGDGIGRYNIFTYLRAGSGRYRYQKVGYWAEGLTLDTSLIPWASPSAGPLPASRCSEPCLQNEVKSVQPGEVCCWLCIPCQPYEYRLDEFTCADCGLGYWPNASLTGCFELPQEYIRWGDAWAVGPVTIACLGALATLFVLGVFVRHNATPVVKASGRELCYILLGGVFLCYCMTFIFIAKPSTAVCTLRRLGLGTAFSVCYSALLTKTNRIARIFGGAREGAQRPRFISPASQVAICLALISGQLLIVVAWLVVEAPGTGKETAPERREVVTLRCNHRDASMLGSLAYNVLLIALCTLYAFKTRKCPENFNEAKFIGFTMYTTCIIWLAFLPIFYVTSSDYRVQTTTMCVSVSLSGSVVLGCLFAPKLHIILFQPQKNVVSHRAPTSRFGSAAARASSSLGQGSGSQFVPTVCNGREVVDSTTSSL
# Description: as §1, §2
# [4] = molecular target: T4, HCRTR1 (Homo sapiens, UniProt O43613); test: NanoBRET screen HiBiT-HCRTR1 in HEK293
# T4 construct: purchased Promega (in-house HiBiT-GPCR construct library, NanoBRET)
# T4 sequence (O43613 1-425): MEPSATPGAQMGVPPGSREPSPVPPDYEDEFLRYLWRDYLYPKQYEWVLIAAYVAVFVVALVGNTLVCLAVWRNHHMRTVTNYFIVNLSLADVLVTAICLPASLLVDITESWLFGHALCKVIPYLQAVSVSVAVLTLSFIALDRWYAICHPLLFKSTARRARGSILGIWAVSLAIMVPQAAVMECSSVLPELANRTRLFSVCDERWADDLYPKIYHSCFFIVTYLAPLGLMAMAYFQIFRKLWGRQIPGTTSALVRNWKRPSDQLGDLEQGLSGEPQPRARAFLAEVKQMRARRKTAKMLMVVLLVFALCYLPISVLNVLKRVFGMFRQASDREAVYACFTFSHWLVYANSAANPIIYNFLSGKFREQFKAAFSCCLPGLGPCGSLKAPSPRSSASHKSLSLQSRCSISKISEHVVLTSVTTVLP
# Description: as §1, §2
# [5] = molecular target: T5, CXCR3 (Homo sapiens, UniProt P49682); test: NanoBRET screen HiBiT-CXCR3 in HEK293
# T5 construct: purchased Promega (in-house HiBiT-GPCR construct library, NanoBRET)
# T5 sequence (P49682 1-368): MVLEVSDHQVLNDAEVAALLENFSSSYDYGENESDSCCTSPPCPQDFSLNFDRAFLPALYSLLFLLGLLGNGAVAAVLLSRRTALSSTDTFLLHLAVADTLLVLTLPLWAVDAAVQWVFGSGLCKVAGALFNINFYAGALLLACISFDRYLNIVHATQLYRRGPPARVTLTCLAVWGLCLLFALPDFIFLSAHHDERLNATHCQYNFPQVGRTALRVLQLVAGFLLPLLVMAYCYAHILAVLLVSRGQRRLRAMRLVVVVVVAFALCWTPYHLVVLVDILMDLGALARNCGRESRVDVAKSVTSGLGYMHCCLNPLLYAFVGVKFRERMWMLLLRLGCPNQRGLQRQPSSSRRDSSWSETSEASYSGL
# Description: as §1, §2
# [6] = tracer at 0.1μM, listed as amitriptyline-b-2-NB590
# [7] = tracer at 1μM, listed as amitriptyline-b-2-NB590
# T1 sequence (Q9P296 whole entry): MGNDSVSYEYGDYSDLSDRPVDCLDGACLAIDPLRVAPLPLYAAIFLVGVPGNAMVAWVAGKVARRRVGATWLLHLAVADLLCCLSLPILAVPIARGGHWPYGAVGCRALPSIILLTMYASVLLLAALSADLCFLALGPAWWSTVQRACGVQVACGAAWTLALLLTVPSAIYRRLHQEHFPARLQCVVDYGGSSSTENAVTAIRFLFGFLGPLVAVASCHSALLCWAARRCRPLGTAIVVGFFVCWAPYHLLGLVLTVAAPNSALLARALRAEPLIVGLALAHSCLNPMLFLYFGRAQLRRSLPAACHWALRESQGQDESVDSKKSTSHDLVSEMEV
Structure (SMILES),"NanoBRET Fold Response ([1]; C5AR2, tracer 0.1μM)","NanoBRET Fold Response ([1]; C5AR2, tracer 1μM)","NanoBRET Fold Response ([2]; HRH3, tracer 0.1μM)","NanoBRET Fold Response ([2]; HRH3, tracer 1μM)",NanoBRET Fold Response ([3]; tracer 0.1μM),NanoBRET Fold Response ([3]; tracer 1μM),"NanoBRET Fold Response ([4]; HCRTR1, tracer 0.1μM)","NanoBRET Fold Response ([4]; HCRTR1, tracer 1μM)","NanoBRET Fold Response ([5]; CXCR3, tracer 0.1μM)","NanoBRET Fold Response ([5]; CXCR3, tracer 1μM)",further results
Cc1nc2n(c(=O)c1CCN1CCC(c3noc4cc(F)ccc34)CC1)CCCC2OC(=O)NCCOCCOCCOCCOCCNC(=O)CCc1ccc2n1[B-](F)(F)[N+]1=C(c3ccc[nH]3)C=CC1=C2 (centres unmarked) [Risperidone-2-NB590],1.06,1.07,1.07,1.58,0.96,1.04,1.01,1.05,1.06,0.91,–
CCOC(=O)c1cc(C#N)c(N2CCC(C(=O)NS(=O)(=O)Cc3ccccc3/C=C/C(=O)NCCNC(=O)CCc3ccc4n3[B-](F)(F)[N+]3=C(c5ccc[nH]5)C=CC3=C4)CC2)nc1C [AZD1283-1-NB590],–,–,–,–,–,–,–,–,–,–,"NanoBRET Fold Response ([1]; C5AR2, 0.1μM): 0.97; NanoBRET Fold Response ([1]; C5AR2, 1μM): 1.12; NanoBRET Fold Response ([2]; HRH3, 0.1μM): 1.16; NanoBRET Fold Response ([2]; HRH3, 1μM): 0.87; NanoBRET Fold Response ([3]; 0.1μM): 1.00; NanoBRET Fold Response ([3]; 1μM): 0.43; NanoBRET Fold Response ([4]; HCRTR1, 0.1μM): 1.00; NanoBRET Fold Response ([4]; HCRTR1, 1μM): 1.09; NanoBRET Fold Response ([5]; CXCR3, 0.1μM): 0.98; NanoBRET Fold Response ([5]; CXCR3, 1μM): 1.17"
Cc1cc2c(s1)Nc1ccccc1N=C2N1CCN(CCCNC(=O)CCOCCOCCOCCOCCNC(=O)CCc2ccc3n2[B-](F)(F)[N+]2=C(c4ccc[nH]4)C=CC2=C3)CC1 [Olanzapine-a-2-NB590],0.95,0.97,1.06,1.16,1.00,1.01,0.98,0.99,1.05,0.89,–
COc1ccccc1N1CCN(CCCCN2C(=O)c3ccc(CNC(=O)CCOCCNC(=O)c4ccc(CNC(=O)CCc5ccc6n5[B-](F)(F)[N+]5=C(c7ccc[nH]7)C=CC5=C6)cc4)cc3C2=O)CC1 [NAN-190-3-NB590],0.87,1.07,1.38,0.93,1.03,1.03,0.98,0.91,0.97,1.01,–
CC(C)N(CC[C@H](c1ccccc1)c1cc(CCNC(=O)CCOCCOCCOCCOCCNC(=O)CCc2ccc3n2[B-](F)(F)[N+]2=C(c4ccc[nH]4)C=CC2=C3)ccc1O)C(C)C [Tolterodine-2-NB590],0.98,0.92,1.49,1.07,0.99,0.97,1.04,1.16,1.87,1.01,–
CN(C)CCC=C1c2ccccc2CCc2ccc(C(=O)NCCNC(=O)CCOCCOCCOCCOCCNC(=O)CCc3ccc4n3[B-](F)(F)[N+]3=C(c5ccc[nH]5)C=CC3=C4)cc21 [Amitriptyline-b-2-NB590],–,–,–,–,0.97,0.98,–,–,–,–,"NanoBRET Fold Response [2, 6]: 1.62; NanoBRET Fold Response [2, 7]: 1.31; NanoBRET Fold Response [4, 6]: 1.08; NanoBRET Fold Response [4, 7]: 0.91; NanoBRET Fold Response [5, 6]: 1.05; NanoBRET Fold Response [5, 7]: 0.98"
O=C(CCOCCOCCOCCOCCNC(=O)CCc1ccc2n1[B-](F)(F)[N+]1=C(c3ccc[nH]3)C=CC1=C2)NCCCN1CCN(C2=Nc3ccccc3Oc3ccc(Cl)cc32)CC1 [Loxapine-a-2-NB590],0.95,1.07,1.06,1.01,1.00,1.25,0.93,1.09,1.04,1.26,–
CN(C)CCC=C1c2ccccc2CCc2ccc(C(=O)NCCNC(=O)CCOCCOCCOCCOCCNC(=O)CCc3ccc4n3[B-](F)(F)[N+]3=C(c5ccc[nH]5)C=CC3=C4)cc21 [Amitriptyline-a-2-NB590],–,–,–,–,–,–,–,–,–,–,NanoBRET Fold Response ([1]; tracer at 0.1μM): 1.11; NanoBRET Fold Response ([1]; tracer at 1μM): 1.01; NanoBRET Fold Response ([2]; tracer at 0.1μM): 1.01; NanoBRET Fold Response ([2]; tracer at 1μM): 0.94; NanoBRET Fold Response ([4]; tracer at 0.1μM): 1.00; NanoBRET Fold Response ([4]; tracer at 1μM): 1.00; NanoBRET Fold Response ([5]; tracer at 0.1μM): 1.00; NanoBRET Fold Response ([5]; tracer at 1μM): 0.97
O=C(CCc1ccc2n1[B-](F)(F)[N+]1=C(c3ccc[nH]3)C=CC1=C2)NCCOCCOCCNC(=O)OCCOCCN1CCN(C2=Nc3ccccc3Sc3ccccc32)CC1 [Quetiapine-a-2-NB590],1.04,0.77,1.09,0.98,0.92,1.06,0.98,0.77,1.00,1.14,–
COc1ccccc1N1CCN(CCCCN2C(=O)c3ccc(CNC(=O)CCOCCOCCOCCOCCNC(=O)CCc4ccc5n4[B-](F)(F)[N+]4=C(c6ccc[nH]6)C=CC4=C5)cc3C2=O)CC1 [NAN-190-2-NB590],1.02,–,0.98,0.97,0.26,1.00,–,–,0.94,–,–
CN(CCC=C1c2ccccc2CCc2ccccc21)C(=O)CCOCCOCCOCCOCCNC(=O)CCc1ccc2n1[B-](F)(F)[N+]1=C(c3ccc[nH]3)C=CC1=C2 [Amitriptyline-e-2-NB590],–,–,–,–,–,–,–,–,–,–,NanoBRET Fold Response ([1]; tracer at 1μM): 1.01; NanoBRET Fold Response ([2]; tracer at 1μM): 0.95; NanoBRET Fold Response ([5]; tracer at 1μM): 1.22
